Experimental findings from patent publication US12492188B2, “1H-benzo[D]imidazole derivatives as TLR9 inhibitors for the treatment of fibrosis” (BRISTOL-MYERS SQUIBB COMPANY, priority 2020, dated 2025) are described below.

Where two headings read alike, the source gives them in different places. A value given as a limit tells only on which side of the number the result lay.

Common to all, as to assay type: cell-based
The target of one experiment is T1, human TLR9 (Homo sapiens, UniProt Q9NR96).
T1 construct: host or cells: HEK-Blue cells (HEK293-derived reporter line)
T1 sequence (Q9NR96 26-1032): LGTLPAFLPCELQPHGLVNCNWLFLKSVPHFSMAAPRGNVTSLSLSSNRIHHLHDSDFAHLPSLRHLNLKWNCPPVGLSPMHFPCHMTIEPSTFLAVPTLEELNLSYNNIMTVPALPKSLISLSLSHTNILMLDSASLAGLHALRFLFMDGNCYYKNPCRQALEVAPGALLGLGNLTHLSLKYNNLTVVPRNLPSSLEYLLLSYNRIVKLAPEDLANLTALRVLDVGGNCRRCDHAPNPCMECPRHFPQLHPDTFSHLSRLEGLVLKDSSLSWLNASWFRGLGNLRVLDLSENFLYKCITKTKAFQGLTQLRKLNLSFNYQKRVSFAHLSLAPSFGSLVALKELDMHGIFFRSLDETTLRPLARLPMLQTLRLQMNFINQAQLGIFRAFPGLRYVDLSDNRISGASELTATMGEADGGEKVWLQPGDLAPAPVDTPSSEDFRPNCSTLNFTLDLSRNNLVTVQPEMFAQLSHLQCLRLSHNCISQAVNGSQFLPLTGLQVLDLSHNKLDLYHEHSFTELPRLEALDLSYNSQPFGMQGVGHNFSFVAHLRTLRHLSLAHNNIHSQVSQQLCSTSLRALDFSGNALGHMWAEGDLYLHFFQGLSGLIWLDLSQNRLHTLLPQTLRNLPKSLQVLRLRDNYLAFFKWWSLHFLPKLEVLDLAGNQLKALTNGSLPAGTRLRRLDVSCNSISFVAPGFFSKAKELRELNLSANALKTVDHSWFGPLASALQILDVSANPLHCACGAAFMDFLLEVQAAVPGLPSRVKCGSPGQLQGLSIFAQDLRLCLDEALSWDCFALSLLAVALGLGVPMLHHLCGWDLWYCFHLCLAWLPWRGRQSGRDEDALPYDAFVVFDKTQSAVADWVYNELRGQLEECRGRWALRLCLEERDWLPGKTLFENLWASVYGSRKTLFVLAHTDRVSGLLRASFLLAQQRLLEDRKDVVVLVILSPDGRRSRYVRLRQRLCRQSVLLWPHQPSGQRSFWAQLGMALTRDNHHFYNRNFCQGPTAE
The experiment is described as follows: TLR9 inhibition reporter assay (HEK-Blue cells, secreted embryonic alkaline phosphatase reporter). As to conditions: HEK-Blue cells overexpressing human TLR9, stimulated with ODN2006 5 nM. In outline: (§1)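 HEK-Blue cells expressing human TLR7, TLR8 or TLR9 with an NF-κB/AP-1-driven SEAP reporter were pretreated with compound (0.05 nM–50 μM final) for 30 min at room temperature. Agonists were gardiquimod 7.5 μM for TLR7, R848 15.9 μM for TLR8 and ODN2006 5 nM for TLR9. SEAP was read after 22 h at 37 °C, and inhibition was calculated relative to agonist-plus-DMSO and known-inhibitor controls.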
For orientation: Reporter assays use an easily measured gene product as a stand-in for the process of interest.

The target in the next experiment is T2, human TLR8 (Homo sapiens, UniProt Q9NR97).
T2 construct: host or cells: HEK-Blue cells (HEK293-derived reporter line)
T2 sequence (Q9NR97 27-1041): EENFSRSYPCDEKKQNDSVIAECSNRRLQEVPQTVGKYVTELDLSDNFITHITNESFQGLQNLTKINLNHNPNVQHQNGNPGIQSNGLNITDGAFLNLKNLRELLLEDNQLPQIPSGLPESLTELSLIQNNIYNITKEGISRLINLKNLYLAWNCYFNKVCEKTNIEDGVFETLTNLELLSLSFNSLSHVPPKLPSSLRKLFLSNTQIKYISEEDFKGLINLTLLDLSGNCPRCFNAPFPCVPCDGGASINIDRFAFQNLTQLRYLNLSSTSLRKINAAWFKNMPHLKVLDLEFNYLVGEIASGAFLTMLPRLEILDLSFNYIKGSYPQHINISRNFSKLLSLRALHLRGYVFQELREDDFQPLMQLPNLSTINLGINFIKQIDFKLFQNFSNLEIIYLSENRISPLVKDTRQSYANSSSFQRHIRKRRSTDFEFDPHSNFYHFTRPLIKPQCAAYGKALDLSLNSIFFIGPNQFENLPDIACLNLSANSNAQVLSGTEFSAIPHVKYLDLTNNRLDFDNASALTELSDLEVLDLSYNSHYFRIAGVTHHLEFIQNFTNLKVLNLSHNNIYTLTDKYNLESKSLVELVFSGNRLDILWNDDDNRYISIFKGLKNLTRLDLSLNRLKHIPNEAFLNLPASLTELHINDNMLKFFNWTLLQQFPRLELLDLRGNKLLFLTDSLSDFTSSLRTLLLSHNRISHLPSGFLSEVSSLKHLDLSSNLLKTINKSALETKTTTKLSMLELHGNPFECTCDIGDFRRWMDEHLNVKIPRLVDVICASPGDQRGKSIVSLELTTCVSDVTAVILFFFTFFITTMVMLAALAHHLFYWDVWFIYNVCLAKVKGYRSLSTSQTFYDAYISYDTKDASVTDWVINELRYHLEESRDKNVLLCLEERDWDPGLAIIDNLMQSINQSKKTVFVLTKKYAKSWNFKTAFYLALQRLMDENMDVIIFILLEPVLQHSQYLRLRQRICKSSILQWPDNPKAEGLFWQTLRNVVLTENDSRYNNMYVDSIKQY
The experiment is described as follows: TLR8 inhibition reporter assay (HEK-Blue cells, secreted embryonic alkaline phosphatase reporter). As to conditions: HEK-Blue cells overexpressing human TLR8, stimulated with R848 15.9 μM; read-out: TLR 8 IC50. The gist of the method: as §1

The target in another experiment is T3, human TLR7 (Homo sapiens, UniProt Q9NYK1).
T3 construct: host or cells: HEK-Blue cells (HEK293-derived reporter line)
T3 sequence (Q9NYK1 27-1049): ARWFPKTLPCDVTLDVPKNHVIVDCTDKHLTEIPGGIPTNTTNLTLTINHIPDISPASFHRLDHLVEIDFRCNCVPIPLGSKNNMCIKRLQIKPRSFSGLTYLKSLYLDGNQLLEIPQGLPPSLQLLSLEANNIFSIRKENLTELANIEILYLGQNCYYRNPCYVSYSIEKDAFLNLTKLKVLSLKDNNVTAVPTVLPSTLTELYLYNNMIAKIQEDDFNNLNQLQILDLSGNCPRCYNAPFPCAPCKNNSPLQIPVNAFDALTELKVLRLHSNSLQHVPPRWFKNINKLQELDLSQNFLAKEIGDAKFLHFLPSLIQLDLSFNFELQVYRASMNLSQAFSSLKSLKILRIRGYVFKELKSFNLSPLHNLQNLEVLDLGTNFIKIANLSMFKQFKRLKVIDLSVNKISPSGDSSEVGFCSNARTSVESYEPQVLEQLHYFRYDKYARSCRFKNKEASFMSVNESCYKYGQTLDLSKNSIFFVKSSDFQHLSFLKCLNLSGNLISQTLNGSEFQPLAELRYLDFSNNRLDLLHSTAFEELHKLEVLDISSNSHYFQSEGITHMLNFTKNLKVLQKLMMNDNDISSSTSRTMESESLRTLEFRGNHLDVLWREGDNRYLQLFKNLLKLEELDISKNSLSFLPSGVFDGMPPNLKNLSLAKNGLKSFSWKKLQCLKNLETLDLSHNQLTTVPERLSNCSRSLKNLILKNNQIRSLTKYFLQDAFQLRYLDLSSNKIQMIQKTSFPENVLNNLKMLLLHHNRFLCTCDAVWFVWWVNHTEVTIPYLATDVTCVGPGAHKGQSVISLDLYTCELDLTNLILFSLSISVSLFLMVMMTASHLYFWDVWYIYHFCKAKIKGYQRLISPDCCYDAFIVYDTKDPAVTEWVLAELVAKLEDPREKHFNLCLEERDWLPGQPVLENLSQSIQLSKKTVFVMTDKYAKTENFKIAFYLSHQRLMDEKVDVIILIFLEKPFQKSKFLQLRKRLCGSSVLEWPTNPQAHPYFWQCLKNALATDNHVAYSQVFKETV
The experiment is described as follows: TLR7 inhibition reporter assay (HEK-Blue cells, secreted embryonic alkaline phosphatase reporter). As to conditions: HEK-Blue cells overexpressing human TLR7, stimulated with gardiquimod 7.5 μM; read-out: TLR 7 IC50. The gist of the method: as §1

Setting [1] is: 22 hour incubation, reporter readout.

By IC50 is commonly meant the concentration needed to halve the response being measured. In the case of `CC(C)N1C2CCC1CC(N1CCC(c3cc4c(cc3F)nc(-c3ccc(S(C)(=O)=O)cc3)n4C)CC1)C2` (single isomer, unassigned) [Example 98, 5-fluoro-6-(1-(8-isopropyl-8-azabicyclo[3.2.1]octan-3-yl)piperidin-4-yl)-1-methyl-2-(4-(methylsulfonyl)phenyl)-1H-benzo[d]imidazole], the concentration for half-maximal inhibition (IC50) on human TLR9 (setting [1]) was 0.01 µM; at human TLR8 it was over 50 µM; at human TLR7, 23.8 µM.

For the compound `CC(C)N1C2CCC1CC(N1CCC(c3cc4nc(-c5ccc(S(C)(=O)=O)cc5)n(C)c4cc3F)CC1)C2` (single isomer, unassigned) [Example 100, 6-fluoro-5-(1-(8-isopropyl-8-azabicyclo[3.2.1]octan-3-yl)piperidin-4-yl)-1-methyl-2-(4-(methylsulfonyl)phenyl)-1H-benzo[d]imidazole], the 50% inhibitory concentration (IC50) against human TLR9 (setting [1]) was 0.062 µM; at human TLR8 it was over 50 µM; at human TLR7, 39.9 µM.

Consider `CC(C)N1C2CCC1CC(N1CCC(c3cc4nc(-c5ccc(S(C)(=O)=O)cc5)n(C)c4cc3F)CC1)C2` (single isomer, unassigned) [Example 101, 6-fluoro-5-(1-(8-isopropyl-8-azabicyclo[3.2.1]octan-3-yl)piperidin-4-yl)-1-methyl-2-(4-(methylsulfonyl)phenyl)-1H-benzo[d]imidazole], for which the IC50 is 0.075 µM against human TLR9 (setting [1]), over 50 µM at human TLR8 and 19.5 µM at human TLR7.

For the compound `CC(C)N1C2CCC1CC(N1CCC(c3ccc4nc(-c5ccc(S(C)(=O)=O)cc5)n(C)c4c3F)CC1)C2` (single isomer, unassigned) [Example 103, 7-fluoro-6-(1-(8-isopropyl-8-azabicyclo[3.2.1]octan-3-yl)piperidin-4-yl)-1-methyl-2-(4-(methylsulfonyl)phenyl)-1H-benzo[d]imidazole], the 50% inhibitory concentration (IC50) against human TLR9 (setting [1]) is 0.054 µM; at human TLR8, over 50 µM; on human TLR7, 25.9 µM.

In the case of `CC(C)N1C2CCC1CC(N1CCC(c3ccc4nc(-c5ccc(S(C)(=O)=O)cc5)n(C)c4c3F)CC1)C2` (single isomer, unassigned) [Example 104, 7-fluoro-6-(1-(8-isopropyl-8-azabicyclo[3.2.1]octan-3-yl)piperidin-4-yl)-1-methyl-2-(4-(methylsulfonyl)phenyl)-1H-benzo[d]imidazole], the figures for the 50% inhibitory concentration (IC50) on human TLR9 (setting [1]), on human TLR8 and at human TLR7 were 0.14 µM, over 50 µM and 39.2 µM, respectively.

For the compound `CC(C)N1C2CCC1CC(N1CCC(c3cc(F)c4nc(-c5ccc(S(C)(=O)=O)cc5)n(C)c4c3)CC1)C2` (single isomer, unassigned) [Example 106, 4-fluoro-6-(1-(8-isopropyl-8-azabicyclo[3.2.1]octan-3-yl)piperidin-4-yl)-1-methyl-2-(4-(methylsulfonyl)phenyl)-1H-benzo[d]imidazole], the IC50 was 0.39 µM at human TLR9 (setting [1]), 0.387 µM at human TLR9 (read-out: TLR 9 IC50), over 50 µM on human TLR8 and 35.1 µM at human TLR7.

`CC(C)N1C2CCC1CC(N1CCC(c3cc(F)c4nc(-c5ccc(S(C)(=O)=O)cc5)n(C)c4c3)CC1)C2` (single isomer, unassigned) [Example 107, 4-fluoro-6-(1-(8-isopropyl-8-azabicyclo[3.2.1]octan-3-yl)piperidin-4-yl)-1-methyl-2-(4-(methylsulfonyl)phenyl)-1H-benzo[d]imidazole]: the IC50 was 0.27 µM against human TLR9 (setting [1]), 0.269 µM at human TLR9 (read-out: TLR 9 IC50), over 50 µM at human TLR8 and 5.8 µM at human TLR7.

For `Cn1c(-c2ccc(S(C)(=O)=O)cc2)nc2c(F)cc(C3CCN(C4CCCN(C5COC5)CC4)CC3)cc21` (single isomer, unassigned) [Example 108, 4-fluoro-1-methyl-2-(4-(methylsulfonyl)phenyl)-6-(1-(1-(oxetan-3-yl)azepan-4-yl)piperidin-4-yl)-1H-benzo[d]imidazole], the half-inhibitory concentration (IC50) against human TLR9 (setting [1]) was 0.26 µM; on human TLR9 (read-out: TLR 9 IC50), 0.0258 µM; on human TLR8 it was over 50 µM; on human TLR7, 24 µM.

`Cn1c(-c2ccc(S(C)(=O)=O)cc2)nc2c(F)cc(C3CCN(C4CCCN(C5COC5)CC4)CC3)cc21` (single isomer, unassigned) [Example 109, 4-fluoro-1-methyl-2-(4-(methylsulfonyl)phenyl)-6-(1-(1-(oxetan-3-yl)azepan-4-yl)piperidin-4-yl)-1H-benzo[d]imidazole]: the concentration for half-maximal inhibition (IC50) is 0.09 µM at human TLR9 (setting [1]), over 50 µM on human TLR8 and 17.2 µM at human TLR7.

Take `Cc1cc(C2CCN(C3CCCN(C4CCC4)CC3)CC2)cc2c1nc(-c1ccc(S(C)(=O)=O)cc1)n2C` (single isomer, unassigned) [Example 110, 6-(1-(1-cyclobutylazepan-4-yl)piperidin-4-yl)-1,4-dimethyl-2-(4-(methylsulfonyl)phenyl)-1H-benzo[d]imidazole]: the concentration for half-maximal inhibition (IC50) on human TLR9 (setting [1]) was 0.083 µM; at human TLR8 it was over 50 µM; on human TLR7 it was 1.2 µM.
